Measurements from patent US20220340597A1, “HEXAHYDRO-1H-PYRAZINO[1,2-A]PYRAZINE COMPOUNDS FOR THE TREATMENT OF AUTOIMMUNE DISEASE” (Hoffmann-La Roche Inc., priority 2019, published 2022).

Legend:
human TLR7 = molecular target: T1, human TLR7 (Homo sapiens, UniProt Q9NYK1); assay: HEK293-Blue-hTLR-7 cells assay; format: cell-based; details: HEK293-Blue-hTLR7 cells, R848 stimulation, 20 hrs, SEAP reporter; read-out: HEK/hTLR7 IC50
T1 construct: host or cells: HEK293 (HEK-Blue hTLR7)
T1 sequence (Q9NYK1 27-1049): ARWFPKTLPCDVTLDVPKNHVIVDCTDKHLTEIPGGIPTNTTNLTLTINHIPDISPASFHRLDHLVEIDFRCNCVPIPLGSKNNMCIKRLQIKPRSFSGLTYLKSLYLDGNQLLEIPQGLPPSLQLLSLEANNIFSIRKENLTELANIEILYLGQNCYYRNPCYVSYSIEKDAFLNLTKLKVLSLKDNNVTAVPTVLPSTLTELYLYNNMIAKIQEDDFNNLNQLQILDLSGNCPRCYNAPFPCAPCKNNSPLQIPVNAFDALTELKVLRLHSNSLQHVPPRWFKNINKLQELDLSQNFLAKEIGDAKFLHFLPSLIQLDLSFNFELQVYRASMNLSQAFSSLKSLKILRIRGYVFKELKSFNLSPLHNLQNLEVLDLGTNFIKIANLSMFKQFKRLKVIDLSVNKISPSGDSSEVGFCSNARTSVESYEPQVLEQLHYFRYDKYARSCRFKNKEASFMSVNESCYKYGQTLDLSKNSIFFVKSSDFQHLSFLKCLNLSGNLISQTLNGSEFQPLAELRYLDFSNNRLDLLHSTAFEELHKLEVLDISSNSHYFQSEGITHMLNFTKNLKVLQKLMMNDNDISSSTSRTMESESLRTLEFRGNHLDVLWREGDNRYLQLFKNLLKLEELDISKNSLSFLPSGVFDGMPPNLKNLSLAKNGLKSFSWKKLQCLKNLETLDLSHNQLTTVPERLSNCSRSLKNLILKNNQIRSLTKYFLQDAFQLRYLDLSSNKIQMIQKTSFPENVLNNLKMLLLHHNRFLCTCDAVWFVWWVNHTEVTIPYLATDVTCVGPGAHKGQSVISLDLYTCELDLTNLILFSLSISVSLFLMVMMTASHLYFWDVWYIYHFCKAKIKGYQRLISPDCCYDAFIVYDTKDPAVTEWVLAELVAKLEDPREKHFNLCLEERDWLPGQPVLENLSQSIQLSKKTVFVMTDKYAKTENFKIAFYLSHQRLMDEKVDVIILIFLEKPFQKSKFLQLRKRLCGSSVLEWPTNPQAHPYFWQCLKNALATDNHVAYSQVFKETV
Procedure: The following tests were carried out in order to determine the activity of the compounds of formula (I) and (Ia) in HEK293-Blue-hTLR-7/8/9 cells assay.
HEK293-Blue-hTLR-7 cells assay:
A stable HEK293-Blue-hTLR-7 cell line was purchased from InvivoGen (Cat. #: hkb-htlr7, San Diego, Calif., USA). These cells were originally designed for studying the stimulation of human TLR7 by monitoring the activation of NF-κB. A SEAP (secreted embryonic alkaline phosphatase) reporter gene was placed under the control of the […] minimal promoter fused to five NF-κB and AP-1-binding sites. The SEAP was induced by activating NF-κB and AP-1 via stimulating HEK-Blue hTLR7 cells with TLR7 ligands. Therefore, the reporter expression was declined by TLR7 antagonist under the stimulation of a ligand, such as R848 (Resiquimod), for incubation of 20 hrs. The cell culture supernatant SEAP reporter activity was determined using QUANTI-Blue™ kit (Cat. #: rep-qb1, Invivogen, San Diego, Calif., USA) at a wavelength of 640 nm, a detection medium that turns purple or blue in the presence of alkaline phosphatase.
Then 20 μL of the supernatant from each well was incubated with […] Quanti-blue substrate solution at 37° C. for 2 hrs and the absorbance was read at 620-655 nm using a spectrophotometer. The signaling pathway that TLR7 activation leads to downstream NF-κB activation has been widely accepted, and therefore similar reporter assay was modified for evaluating TLR7 antagonist.

human TLR8 = molecular target: T2, human TLR8 (Homo sapiens, UniProt Q9NR97); assay: HEK293-Blue-hTLR-8 cells assay
T2 sequence (Q9NR97 27-1041): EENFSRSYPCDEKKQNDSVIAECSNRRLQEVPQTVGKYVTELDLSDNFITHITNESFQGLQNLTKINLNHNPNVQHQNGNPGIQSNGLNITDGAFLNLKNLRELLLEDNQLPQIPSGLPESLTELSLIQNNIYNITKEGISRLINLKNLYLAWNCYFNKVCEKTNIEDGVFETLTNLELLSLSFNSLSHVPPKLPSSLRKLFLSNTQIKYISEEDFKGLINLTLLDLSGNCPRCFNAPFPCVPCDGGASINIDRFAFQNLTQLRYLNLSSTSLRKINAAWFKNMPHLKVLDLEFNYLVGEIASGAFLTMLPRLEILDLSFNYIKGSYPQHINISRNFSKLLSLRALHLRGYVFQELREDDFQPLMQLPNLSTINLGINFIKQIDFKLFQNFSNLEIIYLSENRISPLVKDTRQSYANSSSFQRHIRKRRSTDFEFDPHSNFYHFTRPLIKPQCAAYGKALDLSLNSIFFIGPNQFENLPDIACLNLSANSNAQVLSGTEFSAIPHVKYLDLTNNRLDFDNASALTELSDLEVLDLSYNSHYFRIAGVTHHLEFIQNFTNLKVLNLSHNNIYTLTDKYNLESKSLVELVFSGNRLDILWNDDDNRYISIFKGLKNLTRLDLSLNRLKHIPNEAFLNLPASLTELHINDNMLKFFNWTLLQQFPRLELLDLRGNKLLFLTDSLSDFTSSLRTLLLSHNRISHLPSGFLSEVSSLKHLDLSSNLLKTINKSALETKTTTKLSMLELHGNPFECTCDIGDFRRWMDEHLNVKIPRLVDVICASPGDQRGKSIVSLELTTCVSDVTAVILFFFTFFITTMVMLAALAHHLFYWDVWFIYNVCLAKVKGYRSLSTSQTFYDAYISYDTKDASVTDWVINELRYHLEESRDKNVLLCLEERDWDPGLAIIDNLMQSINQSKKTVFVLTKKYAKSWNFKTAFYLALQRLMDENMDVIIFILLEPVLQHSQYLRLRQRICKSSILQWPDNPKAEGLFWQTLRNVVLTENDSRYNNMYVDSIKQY
Description: HEK293-Blue-hTLR-8 Cells Assay:
A stable HEK293-Blue-hTLR-8 cell line was purchased from InvivoGen (Cat. #: hkb-htlr8, San Diego, Calif., USA). These cells were originally designed for studying the stimulation of human TLR8 by monitoring the activation of NF-κB. A SEAP (secreted embryonic alkaline phosphatase) reporter gene was placed under the control of the IFN-β minimal promoter fused to five NF-κB and AP-1-binding sites. The SEAP was induced by activating NF-κB and AP-1 via stimulating HEK-Blue hTLR8 cells with TLR8 ligands. Therefore, the reporter expression was declined by TLR8 antagonist under the stimulation of a ligand, such as R848, for incubation of 20 hrs. The cell culture supernatant SEAP reporter activity was determined using QUANTI-Blue™ kit (Cat. #: rep-qb1, Invivogen, San Diego, Calif., USA) at a wavelength of 640 nm, a detection medium that turns purple or blue in the presence of alkaline phosphatase.

IC50 (human TLR7) | IC50 (human TLR8) | Structure (SMILES)
13 nM | 20 nM | C[C@@H]1CN(c2ccc(C#N)c3ncccc23)C[C@@H]2CN(c3ccnc(N4CCOC[C@@H](N)C4)c3)CCN21 [Example 53, 5-[(4R,9aS)-8-[2-[(6S)-6-amino-1,4-oxazepan-4-yl]-4-pyridyl]-4-methyl-3,4,6,7,9,9a-hexahydro-1H-pyrazino[1,2-a]pyrazin-2-yl]quinoline-8-carbonitrile]
23 nM | 26 nM | C[C@@H]1CN(c2ccc(C#N)c3ncccc23)C[C@@H]2CN(c3ccnc(N4CCOC[C@H](N)C4)c3)CCN21 [Example 54, 5-[(4R,9aS)-8-[2-[(6R)-6-amino-1,4-oxazepan-4-yl]-4-pyridyl]-4-methyl-3,4,6,7,9,9a-hexahydro-1H-pyrazino[1,2-a]pyrazin-2-yl]quinoline-8-carbonitrile]
15 nM | 40 nM | Cc1cc(N2CCN3[C@@H](C2)CN(c2ccc(C#N)c4ncccc24)C[C@H]3C)nc(N2CC(C)(N)C2)n1 [Example 55, 5-[(4R,9aR)-8-[2-(3-amino-3-methyl-azetidin-1-yl)-6-methyl-pyrimidin-4-yl]-4-methyl-3,4,6,7,9,9a-hexahydro-1H-pyrazino[1,2-a]pyrazin-2-yl]quinoline-8-carbonitrile]
13 nM | 8 nM | C[C@@H]1CN(c2ccc(C#N)c3ncccc23)C[C@@H]2CN(c3ccnc(N4CC(C)(N)C4)c3)CCN21 [Example 56, 5-[(4R,9aS)-8-[2-(3-amino-3-methyl-azetidin-1-yl)-4-pyridyl]-4-methyl-3,4,6,7,9,9a-hexahydro-1H-pyrazino[1,2-a]pyrazin-2-yl]quinoline-8-carbonitrile]
23 nM | 22 nM | C[C@@H]1CN(c2ccc(C#N)c3ncccc23)C[C@@H]2CN(Cc3cncc(N4CCNCC4)c3)CCN21 [Example 57, 5-[(4R,9aS)-4-methyl-8-[(5-piperazin-1-yl-3-pyridyl)methyl]-3,4,6,7,9,9a-hexahydro-1H-pyrazino[1,2-a]pyrazin-2-yl]quinoline-8-carbonitrile]
20 nM | 40 nM | C[C@@H]1CN(c2cccc(CCN3CCN4[C@@H](C3)CN(c3ccc(C#N)c5ncccc35)C[C@H]4C)n2)CCN1 [Example 58, 5-[(4R,9aS)-4-methyl-8-[2-[6-[(3R)-3-methylpiperazin-1-yl]-2-pyridyl]ethyl]-3,4,6,7,9,9a-hexahydro-JH-pyrazino[1,2-a]pyrazin-2-yl]quinoline-8-carbonitrile]
9 nM | 28 nM | C[C@@H]1CN(c2ccc(C#N)c3ncccc23)C[C@@H]2CN(CCc3ccc(N4CC5(CNCCO5)C4)nc3)CCN21 [Example 59, 5-[(4R,9aS)-4-methyl-8-[2-[6-(5-oxa-2,8-diazaspiro[3.5]nonan-2-yl)-3-pyridyl]ethyl]-3,4,6,7,9,9a-hexahydro-1H-pyrazino[1,2-a]pyrazin-2-yl]quinoline-8-carbonitrile]
8 nM | 14 nM | Cc1nc(N2CCNCC2)ccc1CN1CCN2[C@@H](C1)CN(c1ccc(C#N)c3ncccc13)C[C@H]2C [Example 60, 5-[(4R,9aS)-4-methyl-8-[(2-methyl-6-piperazin-1-yl-3-pyridyl)methyl]-3,4,6,7,9,9a-hexahydro-1H-pyrazino[1,2-a]pyrazin-2-yl]quinoline-8-carbonitrile]

Second part, the molecule before the results:

Structure (SMILES) | IC50 (human TLR7) | IC50 (human TLR8)
C[C@@H]1CN(c2ccc(C#N)c3ncccc23)C[C@@H]2CN(c3nccc(N4CC(N)C4)n3)CCN21 [Example 39, 5-[(4R,9aR)-8-[4-(3-aminoazetidin-1-yl)pyrimidin-2-yl]-4-methyl-3,4,6,7,9,9a-hexahydro-1H-pyrazino[1,2-a]pyrazin-2-yl]quinoline-8-carbonitrile] | 21 nM | 17 nM
C[C@@H]1CN(c2ccc(C#N)c3ncccc23)C[C@@H]2CN(c3ccnc(N4C[C@@H](F)[C@@H](N)C4)c3)CCN21 [Example 40, 5-[(4R,9aS)-8-[2-[(3S,4R)-3-amino-4-fluoro-pyrrolidin-1-yl]-4-pyridyl]-4-methyl-3,4,6,7,9,9a-hexahydro-1H-pyrazino[1,2-a]pyrazin-2-yl]quinoline-8-carbonitrile] | 7 nM | 7 nM
C[C@@H]1CN(c2ccc(C#N)c3ncccc23)C[C@@H]2CN(c3ccnc(N4CC(N)C4)c3)CCN21 [Example 41, 5-[(4R,9aS)-8-[2-(3-aminoazetidin-1-yl)-4-pyridyl]-4-methyl-3,4,6,7,9,9a-hexahydro-1H-pyrazino[1,2-a]pyrazin-2-yl]quinoline-8-carbonitrile] | 35 nM | 7 nM
Cc1cnc(N2CCN3[C@@H](C2)CN(c2ccc(C#N)c4ncccc24)C[C@H]3C)nc1N1CCNCC1 [Example 43, 5-[(4R,9aR)-4-methyl-8-(5-methyl-4-piperazin-1-yl-pyrimidin-2-yl)-3,4,6,7,9,9a-hexahydro-1H-pyrazino[1,2-a]pyrazin-2-yl]quinoline-8-carbonitrile] | 9 nM | 13 nM
CO[C@@H]1CN(c2nc(C)cc(N3CCN4[C@@H](C3)CN(c3ccc(C#N)c5ncccc35)C[C@H]4C)n2)C[C@H]1N [Example 45, 5-[(4R,9aR)-8-[2-[(3R,4R)-3-amino-4-methoxy-pyrrolidin-1-yl]-6-methyl-pyrimidin-4-yl]-4-methyl-3,4,6,7,9,9a-hexahydro-1H-pyrazino[1,2-a]pyrazin-2-yl]quinoline-8-carbonitrile] | 18 nM | 28 nM
Cc1cc(N2CCOC[C@H](N)C2)ncc1N1CCN2CCN(c3ccc(C#N)c4ncccc34)CC2C1 (stereo partly drawn) [Example 46, 5-[2-[6-[(6R)-6-amino-1,4-oxazepan-4-yl]-4-methyl-3-pyridyl]-3,4,6,7,9,9a-hexahydro-1H-pyrazino[1,2-a]pyrazin-8-yl]quinoline-8-carbonitrile] | 14 nM | 13 nM
